Results reported in patent US6936637B2, “Prevention of apoptosis in non-cancerous cells” (University of Tennessee Research Foundation, priority 1999, dated 2005).
Blank lines part the entries; values can stand above or below the compound they belong to.

Columns and labels:
[1] = test system: CaCo-2 cells; experiment: Floating cell count in cancerous cells; type: cell-based, human
Description: Cancerous human intestinal CaCo-2 cells were grown in similar culture media as described in Example 1, except that one group of the cells was grown in a medium not containing DFMO and another group was grown in a medium containing DFMO. After four days of growth, camptothecin at a dose of 20 μM was added to the culture medium of each of the groups. After 6 hours, the number of floating cells in the media of the two groups of cells was determined. The study was repeated using a different inducer of apoptosis, a combination of 20 ng/ml of tumor necrosis factor-α (TNF-α) and 25 μg/ml of cycloheximide.

[2] = test system: caspase 3; experiment: Caspase 3 activity assay (DEVD-pNA) in cell lysates; type: cell-based, rat; settings: for caspase 3 activity over time, attached cells: camptothecin exposure 0 to 18 hours, control cells or DFMO treated cells
Description: In a separate flask, following camptothecin or DMSO addition, the cells were harvested after 16 hours in order to obtain a sufficient number of floating cells for analysis. Floating cells were then poured off to be counted and were combined with one wash with cold DPBS (Sigma, St. Louis, Mo.). The attached cells were then harvested for determination of caspase activity. 10 ml of DPBS was added to the flask and the monolayer was scraped and collected into a 25 ml tube. The flask was washed once with 10 ml of DPBS and combined into the 25 ml tube. The cells were pelleted by centrifugation at 800× g for 5 minutes. The supernatant was discarded and the pellet was resuspended in 1 ml of cold DPBS and transferred into a microfuge tube. The cells were pelleted by centrifugation at 10,000× g at 4° C. for 10 minutes. The supernatant was discarded and the cells were lysed in 100 ml of ice cold cell lysis buffer (50 mM HEPES, pH 7.4, 0.1% CHAPS, 1 mM DTT, 0.1 mM EDTA, 0.1% NP40) (Sigma, St. Louis, Mo.). The assay for caspase activity was carried out in a 96-well plate. Into each well was placed 20 μl of cell lysate, 70 μl of assay buffer (50 mM HEPES, pH 7.4, 0.1% CHAPS, 100 mM NaCl, 10 mM DTT, 1 mM EDTA ) and 10 μl of caspase 3 calorimetric substrate (2 mM DEVD-pNA prepared in assay buffer, a caspase specific peptide that is conjugated to the chromogen p-nitroanilide) (Biomol Research Laboratories, Plymouth Meeting, Pa.). The 96-well plate was incubated at 37° C. for 2 hours, during which time the caspase in the sample was allowed to cleave the chromophore pNA from the substrate molecule. Absorbance readings at 405 nm were made after the 2 hour incubation, with the caspase activity being directly proportional to the color reaction. Protein was determined for each sample using the BCA method (Pierce, Rockford, Ill.) and a standard curve for p-nitroanilide was carried out. Results for caspase activity were expressed as pmol of pNA released/mg protein/minute.

[3] = test system: CaCo-2 cells; experiment: Examples 1 to 8 repeated in cancerous cells; type: cell-based, human; settings: CaCo-2 cells substituted for IEC-6
From the text: Studies described in Examples 1 to 8 are repeated, except that cancerous human intestinal CaCo-2 cells (ATCC no. HTB37) are substituted for the IEC-6 rat intestinal cell lines.

[4] = test system: mast cell tumor; experiment: Dog with mast cell tumor treated with Co60 gamma radiation; type: in vivo; settings: DFMO 100 mg/kg/day orally for four days, adult dog
Description: DFMO at a dosage of 100 mg/kg/day is administered orally for four days to an adult dog suffering from a mast cell tumor on one of its rear legs. The tumor is treated in multiple sessions by exposure to Co^60 gamma radiation as indicated for this type of tumor. The field of exposure to the radiation exceeds the boundaries of the tumor.

[5] = test system: IEC-6 cells; experiment: Floating cell count (detachment-induced cell death, apoptosis); type: cell-based, rat; settings: for number of floating cells compared to control: FIG. 4; for floating cells (percentage of total cell count): camptothecin exposure
Description: IEC-6 cells, having the ATCC designation CRL-1592, were obtained from the American Type Culture Collection at passage 13. The IEC-6 cells are normal, non-cancerous intestinal epithelial cells derived from fetal rat crypt cells. These cells are non-tumorigenic and retain the undifferentiated character of epithelial stem cells. The IEC-6 cell stock was maintained in T-150 flasks in a humidified, 37° C. incubator in an atmosphere of 90:10 air:CO2. The medium used was Dulbecco's modified Eagle medium (DMEM) (Gibco BRL, Grand Island, N.Y.) with 5% heat inactivated fetal bovine serum (FBS) (Sigma, St. Louis, Mo.) and 10 μg insulin and 50 μg gentamicin sulfate per ml. The stock was passaged weekly at 1:10, fed 3 times per week, and passages 15-20 were used. The cells were plated on day 0 at a density of 6.25×10^4 cells/cm^2 in T-150 flasks in DMEM/dFBS (dialyzed fetal bovine serum with 10,000 molecular weight cut-off) (Sigma, St. Louis, Mo.) with or without the treatment compound or compounds described in the Examples that follow. The cells were fed on day 2. On day 3, medium was removed and replaced with serum-free medium. On day 4, camptothecin (Sigma, St. Louis, Mo.) in a DMSO vehicle was added to a concentration of 20 μM into the serum-free medium containing the cells of Example 1 for 3 to 18 hours, with the vehicle (DMSO) added to controls. Detachment-induced cell death (DICD) is a well recognized form of apoptosis in anchorage-dependent cell types, such as intestinal epithelial cells. Floating cells were poured into a 25 ml tube and the monolayer was washed once with HBSS without calcium and magnesium. This wash was then combined into the tube with the floating cells. Attached cells were taken up with 0.05% trypsin plus 0.53 MM EDTA, followed by one wash of the flask with DMEM/5% FBS. Cell counts were determined separately for floating and attached cells by counting on a Model ZF Coulter counter. Floating cells were expressed as a percentage of the total cell count obtained by combining the number of floating and attached cells.

[6] = test system: IEC-6 cells; experiment: Intracellular polyamines by HPLC; type: cell-based, rat; settings: for level of putrescine in the cells / level of spermidine in the cells / level of spermine in the cells: cells grown in presence of DFMO or DEGBG
Description: IEC-6 cells were grown for 4 days in the presence or absence of DFMO (Marion Merrel Dow, Cincinnati, Ohio) the highly specific inhibitor of ODC. DFMO treatment depletes putrescine within 3 hours. Depletion of spermidine requires 24 hours and significant depletion (about 50%) of spermine requires 3 days.
Intracellular polyamines were analyzed by high performance liquid chromatography. Cells were plated in 60 mm dishes at 6.25×10^4 cells/cm^2 and grown in DMEM/dFBS with or without DFMO or DEGBG. After washing the monolayer three times with ice-cold DPBS, 0.5 M perchloric acid was added and the samples were then frozen at −80° C. until ready for extraction, dansylation, and HPLC. The standard curve encompassed the range of 0.31-10 μM. Values that fell >25% below the curve were considered not detectable. The level of […] was determined by the Bradford method, as described in Anal. Biochem., 72:248-254 (1976).

[7] = test system: caspase 3; experiment: Western blot of caspase 3 levels; type: cell-based, rat; settings: polyamine depleted cells (DFMO)
Description: Total cell protein (50 μg) from cell extracts prepared for caspase 3 assay was separated on 15% SDS-PAGE and transferred to nitrocellulose membranes for western blotting. Equal loading of protein was confirmed by staining the nitrocellulose membrane with Ponceau S (Sigma, St. Louis, Mo.). The membrane was then probed with an antibody directed against caspase 3 (CPP32) (Santa Cruz Biotechnology, Santa Cruz, Calif.). The immunocomplexes were visualized by the enhanced chemiluminescence detection system.

[8] = test system: IEC-6 cells; experiment: Nucleosomal DNA fragmentation assay; type: cell-based, rat; settings: camptothecin 20 μM
Description: Cells were collected for determining the presence or absence of DNA fragmentation. After treatment with camptothecin (or vehicle), floating cells were poured off and combined with one DPBS wash of the monolayer. […] The attached cells were collected for DNA fragmentation by scraping in DPBS and combining with one wash of the flask with DPBS. […] The nucleosomal fragmentation assay was carried out by isolating DNA from the cells using the TACS apoptotic DNA laddering kit (Trevigen, Gaithersburg, Md.) and analyzing the labeled DNA by agarose gel electrophoresis following the manufacturer's instructions.

[9] = test system: caspase 3; settings: putrescine up to 5 μM added to cell extracts from DFMO treated cells
[10] = cells grown 4 days with DFMO, 6 hours after camptothecin
[11] = 0 time, control cells or DFMO treated cells
[12] = 18 hours, control cells or DFMO treated cells

Compound: NCCCC(N)(C(=O)O)C(F)F (racemic) [DFMO, DL-œ-difluoromethylornithine]
- protection of cancerous cells from apoptosis ([1]; apoptosis induced by camptothecin or TNF-α + cycloheximide): did not protect the cancerous cells from apoptosis
- number of floating cells ([1]; with DFMO 4 days, 20 ng/ml TNF-α and 25 μg/ml cycloheximide): 6.2 +/− .6
- number of floating cells ([1]; with DFMO 4 days, camptothecin 20 μM, 6 hours): 3.7 +/− .24
- number of floating cells ([1]; with DFMO 4 days, no TNF-α + cycloheximide): 4.8 +/− .5
- number of floating cells ([1]; with DFMO 4 days, no camptothecin): 3.1 +/− .06
- exposure to camptothecin after which significant increase in caspase 3 activity was observed ([2]; DFMO treated cells): 18 h
- caspase 3 activity over time, attached cells [2]: did not show remarkable increases in caspase 3 activity for up to 12 hours
- lower caspase 3 activity compared to control [2, 10]: approximately 50%
- inhibition of apoptosis [3]: No inhibition of apoptosis is observed
- death of surrounding normal tissues [4]: visually noticeable decrease in death of the surrounding normal tissues
- effect on tumor [4]: the tumor is killed
- number of floating cells compared to control ([5]; DFMO alone): decreased the number of floating cells
- delay of onset of apoptosis ([5]; DFMO treated cells exposed to camptothecin): up to 12 hours
- floating cells (percentage of total cell count) [5, 11]: 2.2%
- floating cells (percentage of total cell count) ([5]; 12 hours, DFMO treated cells): 9.3%
- floating cells (percentage of total cell count) [5, 12]: 29.1%
- decrease in the number of floating cells compared to control cells treated with camptothecin [5, 10]: ~3 fold
- protection against apoptosis ([5]; cells grown 4 days with DFMO, DMSO (vehicle) or camptothecin, 6 hours): protected against both DMSO (vehicle) and camptothecin-induced apoptosis
- percentage of floating cells ([5]; day 1 of treatment): 19.2%
- percentage of floating cells ([5]; day 2 of treatment): 12.4%
- percentage of floating cells ([5]; day 4 of treatment): 2.2%
- time required for depletion of spermidine ([6]; DFMO treatment of IEC-6 cells): 24 h
- time required for significant depletion of spermine ([6]; DFMO treatment of IEC-6 cells): 3 days
- time to depletion of putrescine ([6]; DFMO treatment of IEC-6 cells): ≤ 3 h
- depletion of spermine ([6]; DFMO treatment, 3 days): about 50%
- level of putrescine in the cells [6]: decreases
- level of spermidine in the cells [6]: decreases
- level of spermine in the cells [6]: decreases
- level of caspase 3 (Western blot) compared with controls [7]: not significantly different

Compound: CCC(=NNC(=N)N)C(CC)=NNC(=N)N [DEGBG, diethylglyoxal bis-(guanylhydrazone)]
- percentage of floating cells ([5]; day 1 of treatment): 26.6%
- percentage of floating cells ([5]; day 2 of treatment): 26.9%
- percentage of floating cells ([5]; day 4 of treatment): 23.3%
- level of putrescine in the cells [6]: significantly increased
- level of spermidine in the cells [6]: decreasing
- level of spermine in the cells [6]: decreasing

Compound: CC[C@@]1(O)C(=O)OCc2c1cc1n(c2=O)Cc2cc3ccccc3nc2-1 [camptothecin]
- number of floating cells ([1]; no DFMO, camptothecin 20 μM, 6 hours): 2.7 +/− .06
- DNA fragmentation, attached cells ([8]; attached cells): did not show remarkable DNA fragmentation
- DNA fragmentation, detached cells ([8]; detached (floating) cells): showed characteristic nucleosomal DNA fragments
- caspase 3 activity, detached cells ([2]; camptothecin 20 μM, detached (floating) cells): increased caspase 3 activity
- increase in caspase 3 activity, attached cells ([2]; camptothecin 20 μM, harvested after 16 hours, attached cells): 7 fold
- caspase 3 activity over time, attached cells [2]: increased progressively with time
- increase in the number of floating cells compared to DMSO control group ([5]; camptothecin 20 μM, within 6 hours): 8 fold
- floating cells (percentage of total cell count) [5, 11]: 6.2%
- floating cells (percentage of total cell count) [5, 12]: 49.3%
- onset of camptothecin induced apoptosis (number of floating cells) ([5]; control cells (no DFMO)): ≤ 3 h

- effect on caspase activity [9]: did not reveal any effect
Compound: NCCCCN [putrescine]
- number of floating cells compared to control ([5]; exogenous 10 μM putrescine along with DFMO): restored the number of floating cells to control levels
